Experimental data taken from patent US10246456B2, “IRAK4 inhibiting agents” (BIOGEN MA INC., priority 2014, dated 2019).

Tests used:
IRAK4 = IRAK4 (Homo sapiens (Human), UniProt Q9NWZ3); test: IRAK-4 AlphaScreen biochemical kinase assay; settings: 1 nM IRAK4, 1 mM ATP, 3.5 h at RT
Procedure, shortened: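 AlphaScreen read-out: streptavidin beads bind the biotinylated peptide and protein A beads bind the anti-phosphothreonine antibody, so energy transfer reports phosphorylation of the peptide. The kinase is human IRAK-4.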

IL-6 in A549 cells = test: Cell-based IL-6 ELISA assay in IL-1beta stimulated A549 cells; settings: 2 ng/ml human IL-1beta overnight
Experimental: The cell-based assays is based on IL-6 ELISA quantification. Briefly, A549 cells are cultured in DMEM with 10% FBS medium. When cells reach 80% confluence they are trypsin treated and seeded 180 ul/well in 96-well plate at 2.5×10^4 cells/well. Then, 20 ul of compound serial dilutions (starting at 10 uM, 10 points) are added to the cell plate; incubate for 30 min at 37 C and stimulated with 2 ng/ml human IL-1beta 37 C, 5% CO2 overnight. The next day 100 ul of cell supernatant per well are analyzed on a Human IL-6 Quantikine ELISA kit from R&D Systems.

Sequence of IRAK4 (Q9NWZ3 whole entry, species assumed): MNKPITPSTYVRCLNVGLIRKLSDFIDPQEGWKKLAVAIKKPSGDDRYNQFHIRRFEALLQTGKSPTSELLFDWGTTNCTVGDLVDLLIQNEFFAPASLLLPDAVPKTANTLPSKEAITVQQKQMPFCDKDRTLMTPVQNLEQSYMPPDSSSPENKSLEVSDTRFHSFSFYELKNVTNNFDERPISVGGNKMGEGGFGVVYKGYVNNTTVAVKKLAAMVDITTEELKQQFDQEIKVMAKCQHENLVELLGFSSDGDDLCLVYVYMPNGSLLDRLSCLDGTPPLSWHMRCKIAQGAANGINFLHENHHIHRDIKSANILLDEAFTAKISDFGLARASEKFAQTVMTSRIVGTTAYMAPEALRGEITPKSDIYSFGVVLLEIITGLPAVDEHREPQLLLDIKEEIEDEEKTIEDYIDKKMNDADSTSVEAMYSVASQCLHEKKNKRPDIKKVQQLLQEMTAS

IC50 (IRAK4) [nM]	EC50 (IL-6 in A549 cells) [nM]	Structure (SMILES)
< 100	≤ 1000	CC(O)c1cccc(-n2ncc3ccc(-c4cccc([C@H](C)N)n4)cc32)n1 (single isomer, unassigned) [Example 416]
< 100	≤ 1000	CCC[C@H](N)c1cccc(-c2ccc3cnn(-c4cccc(C(C)O)n4)c3c2)n1 (single isomer, unassigned) [Example 418]
< 100	≤ 1000	CCCC(N)c1cccc(-c2ccc3cnn(-c4cccc(C(F)F)n4)c3c2)n1 (stereo in doubt) [Example 519, (S)-1-(6-(1-(6-(difluoromethyl)pyridin-2-yl)-1H-indazol-6-yl)pyridin-2-yl)butan-1-amine]
< 100	≤ 1000	CC(N)c1cccc(-c2ccc3cnn(-c4cccc(C(F)F)n4)c3c2)n1 (stereo in doubt) [Example 529, (S)-1-(6-(1-(6-(difluoromethyl)pyridin-2-yl)-1H-indazol-6-yl)pyridin-2-yl)ethanamine]
< 100	≤ 1000	CCC[C@H](N)c1cccc(-c2cc(N3CCC(O)C3)c3cnn(-c4cccc(CO)n4)c3c2)n1 (stereo partly drawn) [Example 325, 1-(6-(6-((S)-1-aminobutyl)pyridin-2-yl)-1-(6-(hydroxymethyl)pyridin-2-yl)-1H-indazol-4-yl)pyrrolidin-3-ol]
< 100	≤ 1000	CCC[C@H](N)c1cccc(-c2cc(N3CCCC3CO)c3cnn(-c4cccc(CO)n4)c3c2)n1 (stereo partly drawn) [Example 326, (1-(6-(6-((S)-1-aminobutyl)pyridin-2-yl)-1-(6-(hydroxymethyl)pyridin-2-yl)-1H-indazol-4-yl)pyrrolidin-2-yl)methanol]
< 100	≤ 1000	CCC[C@H](N)c1cccc(-c2cc(NC)c3cnn(-c4cccc(CO)n4)c3c2)n1 [Example 327, (S)-(6-(6-(6-(1-aminobutyl)pyridin-2-yl)-4-(methylamino)-1H-indazol-1-yl)pyridin-2-yl)methanol]
< 100	≤ 1000	CCC[C@H](N)c1cccc(-c2cc(NCC)c3cnn(-c4cccc(CO)n4)c3c2)n1 [Example 328, (S)-(6-(6-(6-(1-aminobutyl)pyridin-2-yl)-4-(ethylamino)-1H-indazol-1-yl)pyridin-2-yl)methanol]
< 100	≤ 1000	CCC[C@H](N)c1cccc(-c2cc(N3CCC(O)CC3)c3cnn(-c4cccc(CO)n4)c3c2)n1 [Example 329, (S)-1-(6-(6-(1-aminobutyl)pyridin-2-yl)-1-(6-(hydroxymethyl)pyridin-2-yl)-1H-indazol-4-yl)piperidin-4-ol]
< 100	≤ 1000	CCC[C@H](N)c1cccc(-c2cc(N3CCCC(O)C3)c3cnn(-c4cccc(CO)n4)c3c2)n1 (stereo partly drawn) [Example 330, 1-(6-(6-((S)-1-aminobutyl)pyridin-2-yl)-1-(6-(hydroxymethyl)pyridin-2-yl)-1H-indazol-4-yl)piperidin-3-ol]
< 100	≤ 1000	CCC[C@H](N)c1cccc(-c2cc(N3CC(F)(F)C3)c3cnn(-c4cccc(CO)n4)c3c2)n1 [Example 331, (S)-(6-(6-(6-(1-aminobutyl)pyridin-2-yl)-4-(3,3-difluoroazetidin-1-yl)-1H-indazol-1-yl)pyridin-2-yl)methanol]
< 100	≤ 1000	CCC[C@H](N)c1cccc(-c2cc(N3CC(CO)(CCl)C3)c3cnn(-c4cccc(CO)n4)c3c2)n1 [Example 332, (S)-(1-(6-(6-(1-aminobutyl)pyridin-2-yl)-1-(6-(hydroxymethyl)pyridin-2-yl)-1H-indazol-4-yl)-3-(chloromethyl)azetidin-3-yl)methanol]
< 100	≤ 1000	CCC[C@H](N)c1cccc(-c2cc(N3CCC(F)(F)C3)c3cnn(-c4cccc(CO)n4)c3c2)n1 [Example 333, (S)-(6-(6-(6-(1-aminobutyl)pyridin-2-yl)-4-(3,3-difluoropyrrolidin-1-yl)-1H-indazol-1-yl)pyridin-2-yl)methanol]
< 100	≤ 1000	CCC[C@H](N)c1cccc(-c2cc(N3CCOC(C)C3)c3cnn(-c4cccc(CO)n4)c3c2)n1 (stereo partly drawn) [Example 334, (6-(6-(6-((S)-1-aminobutyl)pyridin-2-yl)-4-(2-methylmorpholino)-1H-indazol-1-yl)pyridin-2-yl)methanol]
< 100	≤ 1000	CCC[C@H](N)c1cccc(-c2cc(N3CC(C)OC(C)C3)c3cnn(-c4cccc(CO)n4)c3c2)n1 (stereo partly drawn) [Example 335, (6-(6-(6-((S)-1-aminobutyl)pyridin-2-yl)-4-(2,6-dimethylmorpholino)-1H-indazol-1-yl)pyridin-2-yl)methanol]
< 100	≤ 1000	CCC[C@H](N)c1cccc(-c2cc(NCC(CCl)C(=O)O)c3cnn(-c4cccc(CO)n4)c3c2)n1 (stereo partly drawn) [Example 336, 3-((6-(6-((S)-1-aminobutyl)pyridin-2-yl)-1-(6-(hydroxymethyl)pyridin-2-yl)-1H-indazol-4-yl)amino)-2-(chloromethyl)propanoic acid]
< 100	≤ 1000	CCC[C@H](N)c1cccc(-c2cc(N3CCS(=O)(=O)CC3)c3cnn(-c4cccc(CO)n4)c3c2)n1 [Example 337, (S)-4-(6-(6-(1-aminobutyl)pyridin-2-yl)-1-(6-(hydroxymethyl)pyridin-2-yl)-1H-indazol-4-yl)thiomorpholine 1,1-dioxide]
< 100	≤ 1000	CCC[C@H](N)c1cccc(-c2cc(N3CCSCC3)c3cnn(-c4cccc(CO)n4)c3c2)n1 [Example 338, (S)-(6-(6-(6-(1-aminobutyl)pyridin-2-yl)-4-thiomorpholino-1H-indazol-1-yl)pyridin-2-yl)methanol]
< 100	≤ 1000	CCC[C@H](N)c1cccc(-c2cc(N3CC(C)(C)C3)c3cnn(-c4cccc(CO)n4)c3c2)n1 [Example 340, (S)-(6-(6-(6-(1-aminobutyl)pyridin-2-yl)-4-(3,3-dimethylazetidin-1-yl)-1H-indazol-1-yl)pyridin-2-yl)methanol]
< 100	≤ 1000	CCC[C@H](N)c1cccc(-c2cc(N3CCC(C(=O)O)C3)c3cnn(-c4cccc(CO)n4)c3c2)n1 (stereo partly drawn) [Example 341, 1-(6-(6-((S)-1-aminobutyl)pyridin-2-yl)-1-(6-(hydroxymethyl)pyridin-2-yl)-1H-indazol-4-yl)pyrrolidine-3-carboxylic acid]
< 100	≤ 1000	CCC[C@H](N)c1cccc(-c2cc(N3CCCC3)c3cnn(-c4cccc(CO)n4)c3c2)n1 [Example 342, (S)-(6-(6-(6-(1-aminobutyl)pyridin-2-yl)-4-(pyrrolidin-1-yl)-1H-indazol-1-yl)pyridin-2-yl)methanol]
< 100	≤ 1000	CCC[C@H](N)c1cccc(-c2cc(N3CCN(C)CC3)c3cnn(-c4cccc(CO)n4)c3c2)n1 [Example 343, (S)-(6-(6-(6-(1-aminobutyl)pyridin-2-yl)-4-(4-methylpiperazin-1-yl)-1H-indazol-1-yl)pyridin-2-yl)methanol]
< 100	≤ 1000	CCC[C@H](N)c1cccc(-c2cc(NCC(C)(C)CCl)c3cnn(-c4cccc(CO)n4)c3c2)n1 [Example 344, (S)-(6-(6-(6-(1-aminobutyl)pyridin-2-yl)-4-((3-chloro-2,2-dimethylpropyl)amino)-1H-indazol-1-yl)pyridin-2-yl)methanol]
< 100	≤ 1000	CCC[C@H](N)c1cccc(-c2cc(N3CCC(F)(F)CC3)c3cnn(-c4cccc(CO)n4)c3c2)n1 [Example 346, (S)-(6-(6-(6-(1-aminobutyl)pyridin-2-yl)-4-(4,4-difluoropiperidin-1-yl)-1H-indazol-1-yl)pyridin-2-yl)methanol]
< 100	≤ 1000	CCC[C@H](N)c1cccc(-c2cc(N3CCCC(F)(F)C3)c3cnn(-c4cccc(CO)n4)c3c2)n1 [Example 347, (S)-(6-(6-(6-(1-aminobutyl)pyridin-2-yl)-4-(3,3-difluoropiperidin-1-yl)-1H-indazol-1-yl)pyridin-2-yl)methanol]
< 100	≤ 1000	CCC[C@H](N)c1cccc(-c2cc(N3CC(C(=O)O)C3)c3cnn(-c4cccc(CO)n4)c3c2)n1 [Example 348, (S)-1-(6-(6-(1-aminobutyl)pyridin-2-yl)-1-(6-(hydroxymethyl)pyridin-2-yl)-1H-indazol-4-yl)azetidine-3-carboxylic acid]
< 100	≤ 1000	CCC[C@H](N)c1cccc(-c2cc(N3CCCC(C(=O)O)C3)c3cnn(-c4cccc(CO)n4)c3c2)n1 (stereo partly drawn) [Example 349, 1-(6-(6-((S)-1-aminobutyl)pyridin-2-yl)-1-(6-(hydroxymethyl)pyridin-2-yl)-1H-indazol-4-yl)piperidine-3-carboxylic acid]
< 100	1000 to 10000	CCC[C@H](N)c1cccc(-c2cc(N3CCC(C(=O)O)CC3)c3cnn(-c4cccc(CO)n4)c3c2)n1 [Example 350, (S)-1-(6-(6-(1-aminobutyl)pyridin-2-yl)-1-(6-(hydroxymethyl)pyridin-2-yl)-1H-indazol-4-yl)piperidine-4-carboxylic acid]
< 100	≤ 1000	C[C@H](N)c1cccc(-c2cc(-n3ccnc3)c3cnn(-c4cccc(CO)n4)c3c2)n1 [Example 354, (S)-(6-(6-(6-(1-aminoethyl)pyridin-2-yl)-4-(1H-imidazol-1-yl)-1H-indazol-1-yl)pyridin-2-yl)methanol]
< 100	≤ 1000	C[C@H](N)c1cccc(-c2cc(-n3cncn3)c3cnn(-c4cccc(CO)n4)c3c2)n1 [Example 355, (S)-(6-(6-(6-(1-aminoethyl)pyridin-2-yl)-4-(1H-1,2,4-triazol-1-yl)-1H-indazol-1-yl)pyridin-2-yl)methanol]
